We go through four compounds from PMC6422423, “Constitutively active BRS3 is a genuinely orphan GPCR in placental mammals” (PLoS Biology, 2019).

In test [1] the test system is BRS3 receptors in nonplacental vertebrates. Briefly: Intracellular calcium assay, nonplacental pooled. Format: cell-based, koala, platypus, chicken, turtle, frog, and spotted gar. As to conditions: cBRS3, tBRS3, sBRS3; inhibitor 25 μM 1 h, then GRP or NMB 10 nM; HEK293. The method, then: Intracellular calcium was measured using the non-wash calcium assay Fluo8 kit (ab112129, Abcam) according to the manufacturer’s instructions. Briefly, HEK293 cells were seeded in 24-well plates and were transfected with GRPR, NMBR, BRS3, or the empty vector plasmid pcDNA3.1-V5-His (300 ng) and incubated overnight at 37°C with 5% CO2. The next day, the cells were replated into a 96-well assay plate (black plate and clear bottom). After 12 h, growth media were aspirated, and calcium dye was added. […] The basal fluorescence intensity was recorded 15 times at 1 Hz for […]. The results were normalized to the average basal fluorescence intensity in ratio, and the peak response was used for the result calculation. Calcium fold was calculated using no stimulation data as standard value.
In general terms: Calcium flux is commonly read through the fluorescence of an indicator in the cells.

Test [2] has the same test system. The test can be described thus: ERK1/2 phosphorylation, nonplacental pooled. Format: cell-based, koala, platypus, chicken, turtle, frog, and spotted gar. As to conditions: cBRS3, tBRS3, sBRS3; inhibitor 25 μM 1 h, then GRP or NMB 1 μM 5 min; HEK293. The protocol:
For ERK1/2 phosphorylation, HEK293 cells were seeded in 24-well plates and transfected with GRPR, NMBR, BRS3, mutants of different species’ BRS3, or an empty vector plasmid, pcDNA3.1-V5-His plasmid (300 ng). […] Each sample with an equal amount of protein was mixed with 6×SDS sample buffer, boiled for 5 min, and separated on 10% SDS-polyacrylamide gel electrophoresis (PAGE) before transferring the proteins onto a PVDF membrane. The membranes were then blocked at room temperature for 1 h with 5% milk powder in Tris-buffered saline-Tween (TBST), followed by subsequent incubation at 4°C overnight in TBST containing the different primary antibodies (1:1,000 dilution). After washing three times (10 min each time) with TBST, the membranes were incubated for 1 h in TBST containing the secondary antibodies (1:2,000 dilution), followed by washing three times (10 min each time) with TBST, prior to detection by chemiluminescence.

Test [3] has as its system BRS3 of placental mammals (hBRS3, mBRS3, and aBRS3). The test can be described thus: Luciferase reporter, constitutive Gq activity with inhibitor, pooled. It is filed as cell-based, human, mouse, aardvark. As to conditions: inhibitor 25 μM, 12 h, HEK293. The method, then:
(§1) To detect constitutive activity of BRS3, HEK293 cells were seeded in 24-well plates and cotransfected with the CRE/NFAT-RE/SRF-RE/SRE luciferase reporter plasmids (50 ng), the BRS3 from different species, or BRS3 mutants with different doses (10 ng/50 ng/150 ng); after 24 h, cells were further incubated in serum-free media for another 12 h before luciferase assay. As for peptide supplementation treatment, HEK293 cells were cotransfected with the CRE/NFAT-RE/SRF-RE/SRE luciferase reporter plasmids (50 ng) and various genes (300 ng) of the bombesin receptor family. […] Luciferase activities were determined using luciferase assay kits (Beyotime, Shanghai, China) and normalized to β-galactosidase activity. All experiments were performed at least three times in triplicates. HEK293 cells transfected with pcDNA were used as a blank control in all luciferase experiments, and the fold was calculated compared to blank control.

The subject of another test is human BRS3 (hBRS3). Briefly: Luciferase reporter, constitutive activity (WT, mutants, truncated; with/without inhibitor). As to conditions: 25 μM inhibitor 12 h, HEK293, vs blank. It is filed as cell-based. The protocol:
as §1

The next test relates to mouse BRS3 (mBRS3). Described as above. Format: cell-based. To be noted: 25 μM inhibitor 12 h, HEK293, vs blank. The method, then: as §1
Another test deals with aardvark BRS3 (aBRS3). Described as above. It is filed as cell-based, Orycteropus afer. To be noted: 25 μM inhibitor 12 h, HEK293, vs blank. The method, then: as §1
The subject of test [4] is N-hBRS3 (human BRS3 with truncated N terminus). Briefly: Luciferase reporter, N-terminal peptide stimulated, truncated receptor. As to conditions: 1,000 nM peptide 12 h, HEK293. It is filed as cell-based. The protocol:
as §1
On the technique in general: In a reporter assay the amount or activity of a reporter protein is the signal.

Test [5] has as its system N-mBRS3 (mouse BRS3 with truncated N terminus). The test is described as above. It is filed as cell-based. As to conditions: 1,000 nM peptide 12 h, HEK293. The method, then: as §1
Test [6] deals with N-aBRS3 (aardvark BRS3 with truncated N terminus). The test is described as above. It is filed as cell-based, Orycteropus afer. To be noted: 1,000 nM peptide 12 h, HEK293. The method, then: as §1
For the next test, the system named is N-cBRS3 (chicken). The description is as above. Format: cell-based, Gallus gallus. As to conditions: 1,000 nM, 12 h, HEK293. The protocol:
as §1

The test system of another test is N-sBRS3 (spotted gar). Described as above. It is filed as cell-based, Lepisosteus oculatus. As to conditions: 1,000 nM, 12 h, HEK293. The protocol:
as §1

A further test relates to N-tBRS3 (turtle). The description is as above. Format: cell-based, Chrysemys picta. To be noted: 1,000 nM, 12 h, HEK293. The method, then:
as §1

In test [7] the test system is pcDNA-transfected HEK293 cells. The test can be described thus: Luciferase reporter, N-terminal peptide stimulated, empty vector. It is filed as cell-based, human. As to conditions: 1,000 nM peptide 12 h. The method, then:
as §1

The subject of test [8] is N-BRS3 receptors of placental mammals (N-hBRS3, N-mBRS3, and N-aBRS3). The test can be described thus: Luciferase reporter, N-terminal peptide stimulated, pooled. It is filed as cell-based, human, mouse, aardvark. As to conditions: CRE/NFAT-RE/SRF-RE; 1,000 nM, 12 h, HEK293. The method, then: as §1
Another test concerns GPR39. To be noted: cited from earlier work. The source says: Coevolution of GPCR–ligand pairs appears more pronounced in the polypeptide family, and there are approximately 30 orphan GPCRs from the polypeptide family, in which endogenous peptide ligands are predicted to bind to and activate these orphan GPCRs. Since GPCRs from the polypeptide family were considered to be paired with natural polypeptide ligands, many studies aim to identify endogenous peptides to deorphanize these orphan GPCRs in the polypeptide family. According to the evolution of GPCR-peptide pairs, after the 2R event during the origin of vertebrates, most orphan GP ...

Entries after “also recorded” stand apart in the source; their conditions may differ. *1 amine or outer side, *2 acyl side, *3 side chain or, on linkers, in order; H or OH if unused. Where a SMILES comes first, the peptide text is derived from it. Bridges are numbered along the chain shown (N, C = ends). [ ]: non-standard residue; d: D form. X1 = CC(=O)NC(C(=O)OC(C(C)C)C(N[*:1])C(=O)[*:2])C(O)C(C)C; PhLac = O=C(O)[CH](O)Cc1ccccc1; NMeT = CN[CH](C(=O)O)[CH](C)O; NMeA = CN[CH](C)C(=O)O; NMeDha = C=C(NC)C(=O)O

As for `CN1CCN(c2nc(C3=C(c4c[nH]c5ccccc45)C(=O)NC3=O)c3ccccc3n2)CC1` [Sotrastaurin], the “Inhibition of Ca2+ mobilization (in words)” value in test [1] is “inhibits Ca^2+ ion levels”. Also, the “Inhibition of ERK phosphorylation (in words)” value in test [2] is given as “inhibits the phosphorylation levels of ERK”. For the same compound, the “Inhibition of constitutive Gq signaling (in words)” value in test [3] is “inhibits the constitutively activated Gq signaling pathway”.

`C=C1C(=O)NC(C)C(=O)N(C)C(C)C(=O)NC(C(OC(=O)C(NC(C)=O)C(O)C(C)C)C(C)C)C(=O)N(C)C(C(C)OC)C(=O)OC(C)C(NC(C)=O)C(=O)OC(Cc2ccccc2)C(=O)N1C` (stereo not drawn) [YM 254890] (Ac-T[PhLac][NMeDha]A[NMeA][X1][NMeT](Me); ester 1-C; configuration not given here): the “Inhibition of Ca2+ mobilization (in words)” value in [1] is listed as “inhibits Ca^2+ ion levels; also recorded: inhibited”. Further, the “Inhibition of ERK phosphorylation (in words)” value in test [2] was “inhibits the phosphorylation levels of ERK; also recorded: inhibited”. For the same compound, the “Luciferase fold (constitutive Gq signaling) with inhibitor” value with human BRS3 (hBRS3) (line 1) came to 0.7675 fold; in the test on human BRS3 (hBRS3) (line 2), 0.8993 fold; in the test on human BRS3 (hBRS3) (line 3), 0.8334 fold; in the test on mouse BRS3 (mBRS3) (line 1) it was 1.3903 fold; in the test on mouse BRS3 (mBRS3) (line 2), 1.6189 fold; with mouse BRS3 (mBRS3) (line 3), 1.5046 fold. Moreover, the “Luciferase fold (constitutive Gq signaling) with inhibitor” value was 1.6524 fold in the test with aardvark BRS3 (aBRS3) (line 1), 1.8796 fold with aardvark BRS3 (aBRS3) (line 2) and 1.766 fold with aardvark BRS3 (aBRS3) (line 3). Besides, the “Inhibition of constitutive Gq signaling (in words)” value in [3] was “inhibits the constitutively activated Gq signaling pathway”.

Turning to “MSQRQSQSPNQTLISITNDTETSSSVVSNDTTHKGWTGDNS-NH2 [N-terminal peptide of mBRS3, synthetic N terminus peptide of mouse BRS3]”, the CRE luciferase fold was 1.2968 fold in test [4] (line 1); 1.4057 fold in [4] (line 2); 1.3512 fold in [4] (line 3); 1.2458 fold in [5] (line 1); 1.0945 fold in [5] (line 2); 1.1702 fold in test [5] (line 3). The CRE luciferase fold in test [6] (line 1) is 1.4026 fold; in test [6] (line 2), 1.3089 fold; in test [6] (line 3), 1.3558 fold; in [7] (line 1), 0.9705 fold; in test [7] (line 2), 1.0972 fold; in [7] (line 3) it was 1.0338 fold. Also, the NFAT luciferase fold worked out at 1.5912 fold in test [4] (line 1); 1.6741 fold in test [4] (line 2); 1.6327 fold in [4] (line 3); 2.0847 fold in test [5] (line 1); 1.8235 fold in test [5] (line 2); 1.9541 fold in test [5] (line 3). Besides, the NFAT luciferase fold in test [6] (line 1) was found to be 2.2791 fold; in test [6] (line 2), 1.9413 fold; in [6] (line 3), 2.1102 fold; in [7] (line 1), 0.9071 fold; in test [7] (line 2), 1.1044 fold; in test [7] (line 3), 1.0057 fold. Also, the SRF luciferase fold in test [4] (line 1) amounted to 1.6244 fold; in test [4] (line 2), 1.7709 fold; in test [4] (line 3), 1.6976 fold; in test [5] (line 1), 1.4898 fold; in test [5] (line 2) it was 1.6079 fold; in test [5] (line 3), 1.5488 fold. Further, the SRF luciferase fold is recorded as 1.3458 fold in test [6] (line 1); 1.2427 fold in test [6] (line 2); 1.2942 fold in [6] (line 3); 0.9788 fold in test [7] (line 1); 1.0087 fold in test [7] (line 2); 0.9937 fold in test [7] (line 3). The “Activation of truncated receptor (in words)” value in the test with N-cBRS3 (chicken), in the test with N-sBRS3 (spotted gar) and in the test on N-tBRS3 (turtle) was “cannot be stimulated” each time. Besides, in [8], the “Activation of truncated receptors (in words)” value is on record as “all CRE/NFAT-RE/SRF-RE signaling pathways could be activated”.

Take obestatin: in the test with GPR39, the “Activation of GPR39 (in words)” value is listed as “activated” and the “Activation of GPR39, contrary view (in words)” value is “cannot be activated”.
